# System: cytochrome P450 1A1 (CYP1A1)
# Test: CYP1A1 expression in colonic mucosal tissue of UC patients by RT-PCR (Example 8)
# Type: in vivo, human
# Conditions: mucosal healing (Mayo sub-score 0/1) after treatment
# Excerpt: AhR is a ligand-activated transcription factor that ultimately acts in the nucleus in promoting transcription of various genes, including among others cytochrome P450 1A1 (CYP1A1) which is one of the most important xenobiotic-metabolizing enzymes and an important regulator of immune response in the intestine. Therefore, the inventors studied the expression of CYP1A1 in samples of colonic mucosal tissue obtained from UC patients, using RT-PCR.
# Samples of colonic tissue were obtained during lower endoscopy from UC patients treated with CurQD and patients treated by other medications or placebo. Tissue specimens were immersed in liquid nitrogen. Biopsy samples were lysed and homogenized in TRI-Reagent and extracted according to the manufacturer's instructions (Life technologies, USA). Reverse transcription was performed on lug total RNA using the High Capacity RNA to cDNA kit according to the manufacturer's instructions (Applied Biosystems Foster City, CA USA) and Hs01054796_g1 assay for CYP1A1 and Hs99999905_m1 assay for GAPDH (housekeeping gene).
compound,measurement,value
"Nc1ccc(O)c(C(=O)O)c1 [Batch 5ASA, 5-aminosalicylic acid]",median CYP1A1 expression in patients who achieved mucosal healing,4.6
